# Assay results taken from patent US10722518B2, “Oxazine derivative for use in the treatment or prevention of cerebral amyloid angiopathy” (Novartis AG, priority 2016, dated 2020).
# Where two headings read alike, the source gives them in different places.
# Legend:
# Aβ40 in CSF [1] = assay: First-in-human single and multiple ascending oral dose study: Aβ40 in CSF; assay type: in vivo; settings: for Dose-dependent lowering of Aβ40 concentrations in CSF, up to: healthy elderly subjects
# Procedure: The purpose of this study was to determine the single and multiple maximum tolerated dose of Compound 1 and to assess the pharmacokinetic/pharmacodynamic (PK/PD) relationship using Aβ in CSF as primary PD biomarker.
# Pharmacodynamic assessments using Aβ concentrations in CSF as primary biomarker of drug action were also been applied in healthy elderly subjects. Dose-dependent lowering of Aβ40 concentrations was determined up to approximately 80% and 90% after single and multiple dosing, respectively (Tables 9 and 10, FIG. 7).
# (§1) In the completed first-in-human and 3-month dose-ranging safety and tolerability clinical studies described in Examples 3 and 4, Aβ concentrations in CSF were obtained by means of lumbar punctures before the first dose (baseline) and respectively after 2 weeks and 3 months of multiple dosing. ApoE4 genotype also was obtained in the subjects who consented. The percent change from baseline in Aβ40 and Aβ42 concentrations was calculated in subjects who took the study treatment and had no major protocol deviation with potential impact on the evaluation of the pharmacodynamic effect. Tables 13 to 16 below provide summary statistics of the percent change from baseline by treatment group and ApoE genotype (E4 heterozygotes versus E4 non-carriers). Only one subject with CSF data was E4 homozygote (from the 3-month dose-ranging safety and tolerability study).
# Aβ40 in CSF [2] = assay: 3-month dose-ranging study: Aβ40 in CSF; assay type: in vivo; settings: first-in-human and 3-month studies
# Text: (§2) This study is listed in ClinicalTrials.gov under the NCT02576639 Identifier code.
# (§3) The primary purpose of this study was to expand on previous safety and tolerability data obtained over 2-week and 4-week duration in the first in human study and thereby allow initiation of future long-term efficacy trials in subjects at risk of AD and CAA. In addition, data relevant for Pharmacokinetic/Pharmacodynamic modeling was obtained in order to support dose selection decisions for future efficacy studies.
# The extent of Aβ lowering was stable over time with PD steady-state being reached after approximately 2-3 weeks.
# as §1, with “Only one subject with CSF data was E4 homozygote (from the 3-month dose-ranging safety and tolerability study).” left out
# [3] = 3-month dose-ranging safety and tolerability study; assay type: in vivo, human; settings: once-daily doses of 2, 10, 35 and 85 mg over three months; healthy elderly
# Text: as §2, §3
# [4] = 3-month dose-ranging study: plasma pharmacokinetics on Day 91; assay type: in vivo; settings: human, oral, read-out: expected plasma Cmax,ss
# Aβ40 = assay: Chronic treatment of APP23 mice: Triton TX-100 soluble Aβ40 in brain; assay type: in vivo, mouse
# Procedure: Frozen mouse forebrains were weighed and homogenized in 9 volumes (w/v) of ice-cold TBS-Complete (20 mM Tris-HCl pH 7.4, 137 mM NaCl, 1× Complete [Protease Inhibitor Cocktail Tablets: 1 836 145, Roche Diagnostics GmbH, Penzberg, Germany]) by sonication (90% duty cycle, output control 5, 40-55 pulses, [Sonifier 450, Branson]). After homogenization several 50 μl aliquots were prepared for analysis and were stored at −80° C.
# Human Aβ40 and 42 in mice was determined with the Meso Scale Discovery (MSD) 96-well MULTI-ARRAY human/rodent (6E10) Aβ40/42 Assay (Meso Scale Discovery, Rockville, Md., USA) as described in [RD-2010-00284]. The assay was done according to the manufacturer's instructions except for the calibration curve and the sample preparations. TritonX-100 (TX-100) soluble Aβ40 and 42 was extracted from forebrain with 1% TX-100 using a 50 μl aliquot of each 1:10 forebrain homogenate, mixed with 50 μl 2% TX-100 in TBS complete (20 mM Tris-HCl pH 7.4, 137 mM NaCl, 1× Complete [Protease Inhibitor Cocktail Tablets: 1 836 145, Roche Diagnostics GmbH, Penzberg Germany]) to reach a final concentration of 1% TX-100 and a 1:20 forebrain dilution. The samples were incubated for 15 min on ice and vortexed every 5 min. The samples were ultra-centrifuged (100000×g, 4° C., 15 min) and 50 μl of the clear supernatants were transferred to fresh tubes. The supernatants were further diluted 1:5 in 3% Blocker A solution (from kit) to a final forebrain dilution of 1:100 and applied to the plate.
# The calibration curve was prepared in a corresponding dilution of 1% Blocker A solution spiked with synthetic Aβ1-40 peptide (1.56-100 pg/ml) except for non-transgenic mouse brain samples: In this case, the calibration curve was prepared in a correspondingly diluted APP knockout mouse forebrain spiked with synthetic Aβ1-40 peptide (1.56-100 pg/ml). For all samples and standards 25 μl were applied per well. For each determination duplicate wells were done. The mean values from the duplicate wells were used for calculations. The relative units for samples and standards were imported into SOFTmax PRO 4.0 for calculation of standard curves and quantification of samples.
# Brain homogenates were extracted with 1% Triton X-100 in buffer and the resulting supernatant was considered to represent soluble forms of APP metabolites. In addition to Aβ40 and 42, we determined the N-terminal APP fragments sAPPα (direct cleavage product of α-secretase) and sAPPβ (Swe) (direct product of BACE1 cleavage). […] Since no change in the APP expression and Aβ generation is known to happen during this age, it is assumed that the increased values in the vehicle group (18-20 mo old) arise from “leakage” out of the Aβ deposits (which increase several fold, see below).
# APP23 mice = assay: 13-week oral safety study in aged APP23 mice: MRI of microhaemorrhagic lesions; assay type: in vivo, mouse; settings: aged female APP23 mice
# Procedure: The APP23 mouse strain was chosen because of the existence of microhaemorrhages in aged animals. Females were chosen because of having a much higher overall Aβ load, a higher Aβ40/Aβ42 ratio and thus more pronounced microhaemorrhages.
# β1 antibody administration: intraperitoneal, once weekly. Dosage volume: 0.15 mL/mouse (maximum 10 mL/kg)
# Animal species and strain: Mouse; transgenic APP23 (B6.D2-Tg(Thy1App)23/1Sdz)
# Sex: Females (females have a much higher overall Aβ load, a higher Aβ40/Aβ42 ratio and thus more pronounced microhaemorrhages)
# Age: Approximately 17-18 months (at start of dosing)
# For MRI investigations, mice were anesthetized with 1.5% isoflurane (Abbott, Cham, Switzerland) in a mixture of oxygen/N2O (2:1) administered via a face mask and placed in a Plexiglas cradle. […] Respiration was monitored throughout the acquisitions. […]
# Acquisition and analysis of the MRI data were performed by a blinded investigator. Sites in the cortex and thalamus presenting signal attenuation with a minimum diameter of 70 μm (lesions) were analyzed throughout the whole brain. To ensure that the same site (lesion) was not counted multiple times, its presence was carefully controlled over several consecutive slices from the 3D data set. The total volume of the lesions was assessed using ImgTool, an IDL (Interactive Data Language Research Systems, Boulder, Colo., USA) based software. […]
# [5] = 13-week oral safety study in aged APP23 mice: body weight; assay type: in vivo, mouse; settings: chronic treatment, 13 weeks; aged female APP23 mice
# Procedure: Body weight range: 26 to 36 g (at start of dosing)
# Means and standard deviations (SD), standard error of the mean (SEM) and coefficient of variation (CV) as indicated accordingly were calculated and an Analysis of Variance (ANOVA) performed. For the analysis of body weights a 2way ANOVA with Turkey's multiple comparison test was performed using GraphPad Prism 6. ANOVA with random effects statistical analyses were performed on MRI data using Systat Version 13 (Systat Software, Inc., San Jose, Calif., USA).
compound,measurement,setting,value
"C[C@@]1(c2nc(NC(=O)c3ncc(C(F)(F)F)cc3Cl)ccc2F)CO[C@@](C)(C(F)(F)F)C(N)=N1 [Compound 1, N-(6-((3R,6R)-5-amino-3,6-dimethyl-6-(trifluoromethyl)-3,6-dihydro-2H-1,4-oxazin-3-yl)-5-fluoropyridin-2-yl)-3-chloro-5-(trifluoromethyl)picolinamide]","Dose-dependent lowering of Aβ40 concentrations in CSF, up to",Aβ40 in CSF [1]; multiple dosing,~90%
same,"Aβ40 in CSF percent change from baseline, Median","Aβ40 in CSF [1]; single dose 10 mg, 24 h",−14.3%
same,"Dose-dependent lowering of Aβ40 concentrations in CSF, up to",Aβ40 in CSF [1]; single dosing,approximately 80%
same,"CSF Aβ40 and Aβ42 response to treatment, ApoE4 carriers vs non-carriers",Aβ40 in CSF [2],no difference
same,safety and tolerability,[3],safe and tolerated
same,Cmax,[4]; once daily dose of 15 mg,70 to 170 ng/mL
same,Cmax,[4]; once daily dose of 50 mg,200 to 500 ng/mL
same,Aβ40 change vs vehicle (TX-100 soluble),Aβ40; 0.03 g/kg vs vehicle,−4.6%
same,Aβ40 change vs vehicle (TX-100 soluble),Aβ40; 0.3 g/kg vs vehicle,−43.7%
same,treatment effects on soluble Aβ species from brain tissue and Aβ40 in CSF,Aβ40; high Compound 1 dose,−43.7 to −77%
same,treatment effects on soluble Aβ species from brain tissue and Aβ40 in CSF,Aβ40; low Compound 1 dose,−4.6 to −20%
same,total lesion volume detected by MRI,"APP23 mice; 1, 2 and 3 months of treatment",did not exacerbate lesion volumes
same,lesion numbers (mean±SEM) by MRI,APP23 mice; month 3,11.5±2.0
same,body weight,[5],did not lead to any change in body weight
